In patent EP1434624B1, “2-AMINO-6-(2,4,5-SUBSTITUTED-PHENYL)-PYRIDINES FOR USE AS NITRIC OXIDE SYNTHASE INHIBITORS” (Pfizer Products Inc., priority 2001, dated 2003):
pIC50: −log10 of the molar value. Like-named read-outs stand apart in the source and are kept apart here.

Molecular target: neuronal NOS (Homo sapiens, UniProt P29475)
Test: Inhibition of NO synthase activity by conversion of [3H]arginine to [3H]citrulline (crude enzyme lysate)
Type: biochemical
Description: The ability of the compounds of the present invention to inhibit neuronal NOS may be determined using the procedure described by Bredt and Snyder in Proc. Natl. Acad. Sci. U.S.A., 87, 682-685 (1990).
As indicated above, inhibition of NO synthase activity may be determined by conversion of [^3H]arginine to [^3H]citrulline as described by Bredt and Snyder in Proc. Natl. Acad. Sci. U.S.A., 87, 682-685 (1990), but with slight modification. Specifically, 10 uL of crude enzyme lysate and 10 uL of 350 nM [^3H]arginine are added to 100 uL of buffer containing 10 mM Hepes, 0.32 M sucrose, 0.75 mM NADPH, 0.1 mM EDTA, 0.63 mM CaCl2, 1 mM dithiothreitol, 30 nM calmodulin(CaM), 2 uM Flavin Adenin dinucleotie (FAD), 2 uM Flavin mononucleotide (FMN), 3 uM tetrahydrobiopterin (H4B) and trace bovine serum albumin in 96-well plate format. After incubation for 50 minutes at 30°C, assays are terminated by application to 75 uL BioRex-70 resin (H^+ form) and eluted with 90 uL of water. [^3H]citrulline may be quantified by liquid scintillation spectroscopy of the total flow-through.

Chain of neuronal NOS (P29475 whole entry): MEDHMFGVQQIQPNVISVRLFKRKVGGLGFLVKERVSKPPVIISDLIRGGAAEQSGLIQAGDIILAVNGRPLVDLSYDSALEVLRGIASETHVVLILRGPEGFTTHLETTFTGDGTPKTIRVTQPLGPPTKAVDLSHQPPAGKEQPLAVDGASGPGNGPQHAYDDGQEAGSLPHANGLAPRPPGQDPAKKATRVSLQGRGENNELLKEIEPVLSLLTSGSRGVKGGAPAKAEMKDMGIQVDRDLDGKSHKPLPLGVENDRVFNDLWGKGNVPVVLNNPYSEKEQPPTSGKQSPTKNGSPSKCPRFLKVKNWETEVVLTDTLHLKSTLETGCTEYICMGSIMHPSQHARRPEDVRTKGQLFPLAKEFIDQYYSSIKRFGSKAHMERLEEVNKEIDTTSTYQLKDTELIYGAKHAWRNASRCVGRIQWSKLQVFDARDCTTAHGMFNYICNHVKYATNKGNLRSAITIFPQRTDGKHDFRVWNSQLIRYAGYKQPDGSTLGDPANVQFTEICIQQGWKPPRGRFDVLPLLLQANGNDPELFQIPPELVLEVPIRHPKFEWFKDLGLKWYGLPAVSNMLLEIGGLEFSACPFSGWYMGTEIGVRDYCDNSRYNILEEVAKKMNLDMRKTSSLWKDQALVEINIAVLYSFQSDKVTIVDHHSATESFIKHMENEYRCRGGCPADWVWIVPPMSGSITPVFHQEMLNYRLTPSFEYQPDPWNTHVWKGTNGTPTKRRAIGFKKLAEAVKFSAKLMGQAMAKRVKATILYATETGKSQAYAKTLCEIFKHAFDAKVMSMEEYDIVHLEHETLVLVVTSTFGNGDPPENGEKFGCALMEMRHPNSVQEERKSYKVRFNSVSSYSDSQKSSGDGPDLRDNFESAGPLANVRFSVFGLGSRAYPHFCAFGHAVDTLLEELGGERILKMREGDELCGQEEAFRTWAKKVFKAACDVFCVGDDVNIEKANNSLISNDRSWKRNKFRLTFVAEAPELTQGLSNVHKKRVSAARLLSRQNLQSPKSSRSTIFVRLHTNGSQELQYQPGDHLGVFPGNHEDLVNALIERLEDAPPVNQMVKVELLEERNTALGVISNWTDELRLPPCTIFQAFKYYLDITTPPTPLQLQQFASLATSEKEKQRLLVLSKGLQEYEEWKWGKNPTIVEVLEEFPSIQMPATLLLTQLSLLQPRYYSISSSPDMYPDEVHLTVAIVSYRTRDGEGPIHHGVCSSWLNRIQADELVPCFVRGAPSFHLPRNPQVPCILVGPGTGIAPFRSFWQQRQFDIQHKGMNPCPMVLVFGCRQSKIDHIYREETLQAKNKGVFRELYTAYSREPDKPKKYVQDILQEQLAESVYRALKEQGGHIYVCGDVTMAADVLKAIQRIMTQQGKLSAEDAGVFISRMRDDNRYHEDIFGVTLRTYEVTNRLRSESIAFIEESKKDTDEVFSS

## CCc1cc(-c2cccc(N)n2)c(OC)cc1OC1CNC1 [Example 1, 6-[4-(3-azetidinoxy)-5-ethyl-2-methoxy-phenyl]-pyridin-2-ylamine]
Crude enzyme lysate, [3H]arginine to [3H]citrulline, 50 minutes at 30°C, read-out: IC50 for inhibition of neuronal NOS
  pIC50: 7.44

## CCc1cc(-c2cccc(N)n2)c(OC)cc1CNC [Example 3, 6-[4-(N-methylaminomethyl)-5-ethyl-2-methoxy-phenyl]-pyridin-2-ylamine]
  pIC50: 7.52
